What was measured:
[1] = test system: Thy1+CD24+Lin− CSC-enriched cells from MMTV-Wnt-1 breast tumors; experiment: In vitro colony assay (clonogenic survival), CSC-enriched cells; assay type: cell-based, mouse
Source text: Given the overexpression of genes involved in GSH synthesis by CSCs, we wished to assess the sensitivity of these cells to ROS elevation via pharmacologic depletion of GSH. Exposure of Thy1^+CD24^+Lin″ CSC-enriched cells to Buthionine Sulfoximine (BSO), which inhibits glutamate-cysteine ligase, decreased their colony forming ability by approximately three fold (FIG. 4d). Finally, we asked if GSH depletion would radiosensitize CSCs. […] The mechanism leading to low ROS levels in some CSCs appears to be at least partially due to the increased production of free radical scavengers. […] The low ROS subset found in the various stem cell populations may also represent a quiescent subpopulation. […]
Cells were analyzed, collected by FACS, and injected into recipient mice as described with minor modifications from mouse mammary glands, human breast cancers, human head and neck cancers, and MMTV-Wnt-1 mouse tumors. […] For intracellular ROS analysis, cells were loaded with 10 μM DCF-DA (Invitrogen), incubated at 37° C. for 30 min, and immediately analyzed by flow cytometry. […] DNA damage was evaluated using the single-cell gel electrophoresis assay under alkaline conditions. […] After reverse transcription, genes were pre-amplified (22 cycles) using the same Taqman primers (Applied Biosystems) used for quantification. Products were analyzed using qPCR DynamicArray microfluidic chips (Fluidigm). […]

[2] = test system: “Not Thy1+CD24+” Lin− non-tumorigenic cells (NTCs) from MMTV-Wnt-1 breast tumors; experiment: In vitro colony assay (clonogenic survival after ionizing radiation), non-tumorigenic cells; assay type: cell-based, mouse; conditions: 10 mM tempol for 15 minutes prior to irradiation, drug then removed; FIG. 4c
Source text: In order to pharmacologically manipulate ROS levels separately in CSCs and NTCs, we employed in vitro culture conditions that allowed both cell populations to produce colonies upon co-culture with irradiated feeder cells. […] When exposed to 2 Gy, a dose commonly administered clinically during daily treatments of breast cancer patients, 2.0-fold+/−0.2 more CSC-enriched colonies survived than NTC colonies. Next, we attempted to radioprotect NTCs by exposing them to the nitroxide antioxidant tempol.
Cells were analyzed, collected by FACS, and injected into recipient mice as described with minor modifications from mouse mammary glands, human breast cancers, human head and neck cancers, and MMTV-Wnt-1 mouse tumors. […] For intracellular ROS analysis, cells were loaded with 10 μM DCF-DA (Invitrogen), incubated at 37° C. for 30 min, and immediately analyzed by flow cytometry. […] DNA damage was evaluated using the single-cell gel electrophoresis assay under alkaline conditions. […] After reverse transcription, genes were pre-amplified (22 cycles) using the same Taqman primers (Applied Biosystems) used for quantification. Products were analyzed using qPCR DynamicArray microfluidic chips (Fluidigm). […] After 24-48 hrs, the media was replaced with serum-free Epicult B, and colonies counted ˜7 days later. […] Levels of significance were determined by Student's t-tests using (=0.05. […]

| SMILES | Clonogenic survival after ionizing radiation (radiosensitization) ([1]; 1 mM BSO 24 hour pretreatment, removed prior to irradiation, 3 Gy, FIG. 4e) | Decrease in colony forming ability ([1]; 24 hour pre-treatment with 1 mM BSO, no irradiation, FIG. 4d) | Clonogenic survival of NTCs after irradiation (radioprotection) [2] |
| --- | --- | --- | --- |
| CCCCS(=N)(=O)CC[C@H](N)C(=O)O (stereo partly drawn) [BSO, L-S,R-Buthionine Sulfoximine] | significant radiosensitization | approximately three |  |
| CC1(C)CC(O)CC(C)(C)N1[O] [tempol] |  |  | radioprotected NTCs, and resulted in survival levels similar to those seen in the CSC-enriched population |

From patent publication US20110124032A1, “Methods and Compositions for Treating Carcinoma Stem Cells” (priority 2008, published 2011)
